Assay results published in patent US20170368054A1, “Treatment of Glaucoma Using Laquinimod” (Teva Pharmaceutical Industries, Ltd., priority 2013, published 2017).
Values joined by “and” are separate entries in the source; they are usually repeats but may differ in a detail not shown here. Equal values may be shown once. “Also recorded” adds a separate entry of the source.

Experiments:
[1] = test system: retinal ganglion cells (RGC); test: Fluoro-Gold labeled RGC survival in rat hypertonic saline injection glaucoma model; format: in vivo, Brown Norway rats (Rattus norvegicus); conditions: for Mean % RGC Loss (100-(100 x OHT/Non-OHT Mean RGC Counts per Retina)): OHT vs non-OHT retina, 5 weeks after 2nd HSI, vehicle 34.8
From the text: The purpose of this study was to assess the efficacy of laquinimod in protecting against chronic ocular hypertension (OHT) and RGC degeneration in a rat model of glaucoma, created by injecting hypertonic saline into the episcleral veins in one eye of the Brown Norway rat. In this model, RGC degeneration occurs in response to increased IOP and OHT similar to that in human patients with glaucoma. The rat model of chronic ocular hypertension (OHT)/glaucoma was created in the left eye of each animal via two hypertonic saline injections (HSI) each one week apart. The un-injected right eye served as the control. Throughout the study, the vehicle control and the test articles were prepared weekly. Rats were dosed once daily for oral administration (Group 5) and twice daily for topical administration groups (Groups 1-4), starting on the day of the first HSI until euthanasia. Detailed ocular examinations were performed one week after the 2nd HSI and on the day of euthanasia. […] Post-dose IOP was measured weekly for 5 weeks starting one week after the 2nd HSI until euthanasia. Animals were euthanized 5 weeks after the 2nd HSI. The retinas were flat-mounted, slide IDs were masked and 8 regions per retina were imaged using a confocal microscope. RGC at these regions were counted using the Image J software. After the optic nerves were extracted, they were plastic-embedded, sectioned and stained with Toluidine Blue at Schepens Eye Research Institute, Boston, Mass.. The injury in the optic nerves was evaluated and graded by microscopic examination in a masked fashion. Chronic ocular hypertension (OHT) was created through two hypertonic saline injections (HSI) which were performed one week apart in the left eye. For each HSI, after the rats were anesthetized with a suitable anesthetic, a suture thread was passed through the left eyelid to fix it open. A local anesthetic (e.g., 0.5% Proparacaine HCl Ophthalmic Solution) was applied on the surgery eye topically. The conjunctiva was incised with Vannas scissors to expose an episcleral vein. An occluder ring with a groove was fitted around the left eye to provide unobstructed passage for the selected episcleral vein while obstructing the other episcleral veins. Using a pulled-glass needle, 50-250 μL of 1.8 M hypertonic saline solution was injected into the exposed episcleral vein to scar the aqueous humor outflow pathway in an attempt to elevate IOP. The ring was removed shortly after the injection. The un-operated right eye served as the control. Ophthalmic ointment was applied to both eyes to prevent corneal damage. For each HSI procedure, buprenorphine was administered subcutaneously for approximately 24 hours to manage post-operative pains as appropriate. Clinical observations was performed at least once daily as described in Table 6. Approximately one week prior to euthanasia, RGC was labeled with the retrograde tracer FG. First, animals were sedated with appropriate anesthesia. […] Rats received subcutaneous injections of buprenorphine for approximately 48 hours to manage post-surgery pain as appropriate. The eyes were fixed in 4% paraformaldehyde (PFA) fixative at 4±2° C. for at least 24 hours. Retinas were dissected and flat whole-mounted for confocal visualization and imaging. The actual identification of the retinal flat-mounts was masked prior to confocal imaging. Eight regions per retina were imaged using a confocal microscope and the RGC in each region were counted as follows: Retinal images were evaluated by confocal fluorescence microscopic examination. A three-dimensional view of the x-axis, y-axis, and z-axis were designed and processed using a specific system of image analysis software (Leica Confocal Software) to obtain an image of the viable RGCs labeled with FG. Two areas which were approximately 1.5 mm and 2.75 mm away from the center of the ON head were selected in each retinal quadrant (8 regions per retina) and serial images of the retinal ganglion cell layer were taken by the Confocal Microscope. […]

[2] = test system: Th1 (T helper 1 cell) to Th2 (T helper 2 cell) shift; conditions: animal studies (Yang, 2004; Brück, 2011); cited from earlier work
optic nerve = test: Optic nerve injury grading (toluidine blue cross-sections, Grade 1-5) in rat OHT model; format: in vivo, Brown Norway rats (Rattus norvegicus); conditions: for Mean ON Injury Grade (Mean±SD), Non-OHT (control) eyes / Mean ON Injury Grade (Mean±SD), OHT optic nerves: grade scale 1-5; for Mean ON Injury Grade (Mean±SD), OHT optic nerves: vehicle 3.0±1.6
Description: Animals were euthanized 5 weeks after the 2nd HSI. The retinas were flat-mounted, slide IDs were masked and 8 regions per retina were imaged using a confocal microscope. RGC at these regions were counted using the Image J software. After the optic nerves were extracted, they were plastic-embedded, sectioned and stained with Toluidine Blue at Schepens Eye Research Institute, Boston, Mass.. The injury in the optic nerves was evaluated and graded by microscopic examination in a masked fashion. The eyes were immediately enucleated with the optic nerve attached. An approximately 2.0 mm piece of the ON proximal to the globe is separated and labeled with tissue mark to indicate the orientation of the nerve. The ON piece is placed in Modified Karnovsky's Fixative in 0.1 M Na cacodylate buffer and kept at 4±2° C. overnight. The next day ON piece was washed at least three times for at least 10 minutes each in 0.1 M Na cacodylate buffer and stored in 0.1 M Na cacodylate buffer at 4±2° C. After specimens were transferred to a contracted processing facility, within a week, the optic nerves were processed for plastic embedding: After post-fixation in 2% osmium tetroxide in 0.1 M Na cacodylate buffer for at least 1.5 hours, ONs were dehydrated in graded ethanols, transitioned in propylene oxide and infiltrated with propylene oxide and epon mixtures. One to five (1-5) μm-thick cross-sections were taken via a microtome at the ON end approximately 2.0 mm away from the globe. ON sections were stained with 1% toluidine blue and cover-slipped. The processed specimens were returned. The identification of the ONs were masked prior to injury analysis. The ON cross-sections were analyzed for injury by light microscopy as follows: The damaging effect of the sustained IOP elevation was assessed by qualitative microscopic analysis of the ON cross-sections using a well-established grading system described in Table 9. This method allowed damage analysis of the entire retinal ganglion cell output (the ON) in one section by light microscopy and was more sensitive than counting total axons especially if there is mild nerve damage. […] The extent of injury was then graded by light microscopy based on a pattern of damage observed in rats with elevated IOP. [table] The damaging effect of the sustained IOP elevation was assessed by qualitative microscopic analysis of the ON cross-sections using a well-established grading system described in Table 9. This method allowed damage analysis of the entire retinal ganglion cell output (the ON) in one section by light microscopy and was more sensitive than counting total axons especially if there is mild nerve damage. […] The extent of injury was then graded by light microscopy based on a pattern of damage observed in rats with elevated IOP.

## CCN(C(=O)c1c(O)c2c(Cl)cccc2n(C)c1=O)c1ccccc1 [Laquinimod]
[1]; Group 1, 1% Laquinimod topical, P=0.189
  FG-Labeled RGC counts per mm2, OHT vs Non-OHT retinas, two-tailed paired-t test: no statistically significant difference
[1]; Group 1, topical 1% laquinimod twice daily
  Mean % RGC Loss (100-(100 x OHT/Non-OHT Mean RGC Counts per Retina)): 17.6±33.8% and 17.6%
[1]; Group 3, 4% Laquinimod topical, P=0.071
  FG-Labeled RGC counts per mm2, OHT vs Non-OHT retinas, two-tailed paired-t test: statistically marginally different
[1]; Group 3, topical 4% laquinimod twice daily
  Mean % RGC Loss (100-(100 x OHT/Non-OHT Mean RGC Counts per Retina)): 26.8±36.4% and 26.8%
[1]; Group 4, 0.25% Laquinimod topical, P=0.033
  FG-Labeled RGC counts per mm2, OHT vs Non-OHT retinas, two-tailed paired-t test: fewer RGCs in the OHT eye
[1]; Group 4, topical 0.25% laquinimod twice daily
  Mean % RGC Loss (100-(100 x OHT/Non-OHT Mean RGC Counts per Retina)): 21.6±21.7% and 21.6%
[1]; Group 5, 0.1% Laquinimod oral, P=0.075
  FG-Labeled RGC counts per mm2, OHT vs Non-OHT retinas, two-tailed paired-t test: statistically marginally different
[1]; Group 5, oral 0.1% laquinimod once daily (1 mL)
  Mean % RGC Loss (100-(100 x OHT/Non-OHT Mean RGC Counts per Retina)): 22.9±33.1% and 22.9%
[1]; all groups (0.25%, 1%, 4% topical, 0.1% oral, vehicle), P=0.919
  RGC counts in OHT and Non-OHT eyes versus groups, Two-Way ANOVA eye versus group interaction: groups did not differ
[1]; daily topical application of 1% Laquinimod, Group 1
  Neuroprotection for the RGC (conclusion from RGC counts): may be neuroprotective; also recorded: trend towards neuroprotection
[2]
  Th1 to Th2 shift: causes a Th1
Optic nerve; Group 1, topical 1% laquinimod (left eye dosed only)
  Mean ON Injury Grade (Mean±SD), Non-OHT (control) eyes: 1.1±0.1
Optic nerve; Group 1, topical 1% laquinimod
  Mean ON Injury Grade (Mean±SD), OHT optic nerves: 2.5±1.3
Optic nerve; Group 3, topical 4% laquinimod (left eye dosed only)
  Mean ON Injury Grade (Mean±SD), Non-OHT (control) eyes: 1.2±0.2
Optic nerve; Group 3, topical 4% laquinimod
  Mean ON Injury Grade (Mean±SD), OHT optic nerves: 3.0±1.5
Optic nerve; Group 4, topical 0.25% laquinimod (left eye dosed only)
  Mean ON Injury Grade (Mean±SD), Non-OHT (control) eyes: 1.2±0.3
Optic nerve; Group 4, topical 0.25% laquinimod
  Mean ON Injury Grade (Mean±SD), OHT optic nerves: 2.8±1.3
Optic nerve; Group 5, oral 0.1% laquinimod
  Mean ON Injury Grade (Mean±SD), Non-OHT (control) eyes: 1.2±0.2
  Mean ON Injury Grade (Mean±SD), OHT optic nerves: 2.7±1.5
Optic nerve; all groups, P<0.05
  Mean ON injury grades, OHT eyes compared to Non-OHT control eyes, two-tailed paired-t tests: significantly greater in the OHT eyes
Optic nerve; all groups, P=0.98
  Mean ON injury grades in OHT and Non-OHT eyes versus groups, Two-Way ANOVA eye versus group interaction: groups did not differ
